Legend:
[1] = tested on: Clostridium perfringens; assay: microbe, parasite or virus in culture; type: functional
[2] = tested on: Prevotella melaninogenica; assay: Antibacterial activity against Prevotella melaninogenica assessed as susceptible isolates by CLSI agar dilution method; type: functional
[3] = tested on: Phocaeicola vulgatus; assay: Antibacterial activity against beta-lactamase producing Bacteroides vulgatus by CLSI agar dilution method; type: functional
[4] = tested on: Bacteroides thetaiotaomicron; assay: Antibacterial activity against beta-lactamase producing Bacteroides thetaiotaomicron by CLSI agar dilution method; type: functional
[5] = tested on: Fusobacterium varium; assay: Antibacterial activity against Fusobacterium varium assessed as susceptible isolates by CLSI agar dilution method; type: functional
[6] = tested on: Peptostreptococcus anaerobius; assay: Antibacterial activity against beta-lactamase producing Peptostreptococcus anaerobius assessed as susceptible isolates by CLSI agar dilution method; type: functional
[7] = tested on: Peptoniphilus asaccharolyticus; assay: Antibacterial activity against beta-lactamase producing Peptoniphilus asaccharolyticus assessed as susceptible isolates by CLSI agar dilution method; type: functional
[8] = tested on: Fusobacterium mortiferum; assay: Antibacterial activity against Fusobacterium mortiferum assessed as susceptible isolates by CLSI agar dilution method; type: functional
[9] = tested on: Clostridium septicum; assay: Antibacterial activity against beta-lactamase producing Clostridium septicum by CLSI agar dilution method; type: functional
[10] = tested on: Finegoldia magna; assay: Antibacterial activity against beta-lactamase producing Finegoldia magna assessed as susceptible isolates by CLSI agar dilution method; type: functional
[11] = tested on: Prevotella bivia; assay: Antibacterial activity against Prevotella bivia assessed as resistant isolates by CLSI agar dilution method; type: functional
[12] = tested on: Prevotella bivia; assay: Antibacterial activity against Prevotella bivia by CLSI agar dilution method; type: functional
[13] = tested on: Clostridium paraputrificum; assay: Antibacterial activity against beta-lactamase producing Clostridium paraputrificum by CLSI agar dilution method; type: functional
[14] = tested on: Clostridium septicum; assay: Antibacterial activity against beta-lactamase producing Clostridium septicum assessed as susceptible isolates by CLSI agar dilution method; type: functional
[15] = tested on: Bacteroides caccae; assay: Antibacterial activity against beta-lactamase producing Bacteroides caccae assessed as resistant isolates by CLSI agar dilution method; type: functional
[16] = tested on: Veillonella parvula; assay: Antibacterial activity against Veillonella parvula by CLSI agar dilution method; type: functional
[17] = tested on: Peptostreptococcus anaerobius; assay: Antibacterial activity against beta-lactamase producing Peptostreptococcus anaerobius by CLSI agar dilution method; type: functional
[18] = tested on: Finegoldia magna; assay: Antibacterial activity against beta-lactamase producing Finegoldia magna assessed as resistant isolates by CLSI agar dilution method; type: functional
[19] = tested on: Prevotella buccae; assay: Antibacterial activity against Prevotella buccae assessed as resistant isolates by CLSI agar dilution method; type: functional, Segatella buccae
[20] = tested on: Bacteroides thetaiotaomicron; assay: Antibacterial activity against beta-lactamase producing Bacteroides thetaiotaomicron assessed as resistant isolates by CLSI agar dilution method; type: functional
[21] = tested on: Fusobacterium mortiferum; assay: Antibacterial activity against Fusobacterium mortiferum assessed as resistant isolates by CLSI agar dilution method; type: functional
[22] = tested on: Parvimonas micra; assay: Antibacterial activity against beta-lactamase producing Micromonas micros assessed as resistant isolates by CLSI agar dilution method; type: functional
[23] = tested on: Fusobacterium nucleatum; assay: Antibacterial activity against Fusobacterium nucleatum assessed as susceptible isolates by CLSI agar dilution method; type: functional
[24] = tested on: Bacteroides uniformis; assay: Antibacterial activity against beta-lactamase producing Bacteroides uniformis by CLSI agar dilution method; type: functional
[25] = tested on: Peptostreptococcus anaerobius; assay: Antibacterial activity against beta-lactamase producing Peptostreptococcus anaerobius assessed as resistant isolates by CLSI agar dilution method; type: functional
[26] = tested on: Bacteroides caccae; assay: Antibacterial activity against beta-lactamase producing Bacteroides caccae assessed as susceptible isolates by CLSI agar dilution method; type: functional
[27] = tested on: Prevotella intermedia; assay: Antibacterial activity against Prevotella intermedia assessed as susceptible isolates by CLSI agar dilution method; type: functional
[28] = tested on: Prevotella buccae; assay: Antibacterial activity against Prevotella buccae assessed as susceptible isolates by CLSI agar dilution method; type: functional, Segatella buccae
[29] = tested on: Fusobacterium necrophorum; assay: Antibacterial activity against Fusobacterium necrophorum assessed as resistant isolates by CLSI agar dilution method; type: functional
[30] = tested on: Prevotella melaninogenica; assay: Antibacterial activity against Prevotella melaninogenica assessed as resistant isolates by CLSI agar dilution method; type: functional
[31] = tested on: Finegoldia magna; assay: Antibacterial activity against beta-lactamase producing Finegoldia magna by CLSI agar dilution method; type: functional
[32] = tested on: Fusobacterium nucleatum; assay: Antibacterial activity against Fusobacterium nucleatum by CLSI agar dilution method; type: functional
[33] = tested on: Bacteroides thetaiotaomicron; assay: Antibacterial activity against beta-lactamase producing Bacteroides thetaiotaomicron assessed as susceptible isolates by CLSI agar dilution method; type: functional
[34] = tested on: Parvimonas micra; assay: Antibacterial activity against beta-lactamase producing Micromonas micros by CLSI agar dilution method; type: functional
[35] = tested on: Prevotella bivia; assay: Antibacterial activity against Prevotella bivia assessed as susceptible isolates by CLSI agar dilution method; type: functional
[36] = tested on: Prevotella intermedia; assay: Antibacterial activity against Prevotella intermedia by CLSI agar dilution method; type: functional
[37] = tested on: Peptoniphilus asaccharolyticus; assay: Antibacterial activity against beta-lactamase producing Peptoniphilus asaccharolyticus assessed as resistant isolates by CLSI agar dilution method; type: functional
[38] = tested on: Clostridium tertium; assay: Antibacterial activity against beta-lactamase producing Clostridium tertium assessed as resistant isolates by CLSI agar dilution method; type: functional
[39] = tested on: Bacteroides uniformis; assay: Antibacterial activity against beta-lactamase producing Bacteroides uniformis assessed as susceptible isolates by CLSI agar dilution method; type: functional
[40] = tested on: Bacteroides uniformis; assay: Antibacterial activity against beta-lactamase producing Bacteroides uniformis assessed as resistant isolates by CLSI agar dilution method; type: functional
[41] = tested on: Bacteroides caccae; assay: Antibacterial activity against beta-lactamase producing Bacteroides caccae by CLSI agar dilution method; type: functional
[42] = tested on: Peptoniphilus asaccharolyticus; assay: Antibacterial activity against beta-lactamase producing Peptoniphilus asaccharolyticus by CLSI agar dilution method; type: functional
[43] = tested on: Phocaeicola vulgatus; assay: Antibacterial activity against beta-lactamase producing Bacteroides vulgatus assessed as susceptible isolates by CLSI agar dilution method; type: functional
[44] = tested on: Clostridium paraputrificum; assay: Antibacterial activity against beta-lactamase producing Clostridium paraputrificum assessed as susceptible isolates by CLSI agar dilution method; type: functional
[45] = tested on: Prevotella intermedia; assay: Antibacterial activity against Prevotella intermedia assessed as resistant isolates by CLSI agar dilution method; type: functional
[46] = tested on: Fusobacterium necrophorum; assay: Antibacterial activity against Fusobacterium necrophorum assessed as susceptible isolates by CLSI agar dilution method; type: functional
[47] = tested on: Bacteroides fragilis; assay: Antibacterial activity against Bacteroides fragilis assessed as susceptible isolates by CLSI agar dilution method; type: functional
[48] = tested on: Fusobacterium necrophorum; assay: Antibacterial activity against Fusobacterium necrophorum by CLSI agar dilution method; type: functional
[49] = tested on: Clostridium tertium; assay: Antibacterial activity against beta-lactamase producing Clostridium tertium by CLSI agar dilution method; type: functional
[50] = tested on: Fusobacterium varium; assay: Antibacterial activity against Fusobacterium varium assessed as resistant isolates by CLSI agar dilution method; type: functional
[51] = tested on: Fusobacterium mortiferum; assay: Antibacterial activity against Fusobacterium mortiferum by CLSI agar dilution method; type: functional
[52] = tested on: Fusobacterium varium; assay: Antibacterial activity against Fusobacterium varium by CLSI agar dilution method; type: functional
[53] = tested on: Phocaeicola vulgatus; assay: Antibacterial activity against beta-lactamase producing Bacteroides vulgatus assessed as resistant isolates by CLSI agar dilution method; type: functional
[54] = tested on: Bacteroides fragilis; assay: Antibacterial activity against Bacteroides fragilis by CLSI agar dilution method; type: functional
[55] = tested on: Fusobacterium nucleatum; assay: Antibacterial activity against Fusobacterium nucleatum assessed as resistant isolates by CLSI agar dilution method; type: functional
[56] = tested on: Clostridium tertium; assay: Antibacterial activity against beta-lactamase producing Clostridium tertium assessed as susceptible isolates by CLSI agar dilution method; type: functional
[57] = tested on: Clostridium septicum; assay: Antibacterial activity against beta-lactamase producing Clostridium septicum assessed as resistant isolates by CLSI agar dilution method; type: functional
[58] = tested on: Bacteroides fragilis; assay: Antibacterial activity against Bacteroides fragilis assessed as resistant isolates by CLSI agar dilution method; type: functional
[59] = tested on: Prevotella buccae; assay: Antibacterial activity against Prevotella buccae by CLSI agar dilution method; type: functional; settings: Segatella buccae
[60] = tested on: Clostridium paraputrificum; assay: Antibacterial activity against beta-lactamase producing Clostridium paraputrificum assessed as resistant isolates by CLSI agar dilution method; type: functional
[61] = tested on: Prevotella melaninogenica; assay: Antibacterial activity against Prevotella melaninogenica by CLSI agar dilution method; type: functional
[62] = tested on: Parvimonas micra; assay: Antibacterial activity against beta-lactamase producing Micromonas micros assessed as susceptible isolates by CLSI agar dilution method; type: functional

C[C@@H](O)[C@H]1C(=O)N2C(C(=O)O)=C(SCCNC=N)C[C@H]12 [IMIPENEM ANHYDROUS]
3%: Activity [58]
96%: Activity [5] | Activity [8] | Activity [23] | Activity [26] | Activity [39] | Activity [43] | Activity [46]
0.25 µg/mL: MIC50 [1] | MIC50 [9] | MIC50 [12] | MIC50 [13] | MIC50 [36] | MIC50 [49] | MIC50 [59] | MIC50 [61]
4 µg/mL: MIC90 [3] | MIC90 [4] | MIC90 [24] | MIC90 [32] | MIC90 [41] | MIC90 [48] | MIC90 [51] | MIC90 [52] | MIC90 [54]
0.01 µg/mL: MIC [32] | MIC [48] | MIC [51] | MIC [52]
0%: Activity [18] | Activity [20] | Activity [22] | Activity [25] | Activity [37]
4%: Activity [15] | Activity [21] | Activity [29] | Activity [38] | Activity [40] | Activity [50] | Activity [53] | Activity [55] | Activity [57] | Activity [60]
0.12 µg/mL: MIC [16]
93%: Activity [33] | Activity [47]
94%: Activity [2] | Activity [27] | Activity [28] | Activity [35]
8 µg/mL: MIC90 [1] | MIC90 [9] | MIC90 [13] | MIC90 [49]
100%: Activity [6] | Activity [7] | Activity [10] | Activity [62]
1 µg/mL: MIC50 [3] | MIC50 [24] | MIC50 [41]
0.5 µg/mL: MIC50 [4] | MIC90 [12] | MIC90 [17] | MIC90 [31] | MIC50 [32] | MIC90 [34] | MIC90 [36] | MIC90 [42] | MIC50 [48] | MIC50 [51] | MIC50 [52] | MIC50 [54] | MIC90 [59] | MIC90 [61]
6%: Activity [11] | Activity [19] | Activity [30] | Activity [45]
0.06 µg/mL: MIC50 [17] | MIC50 [31] | MIC50 [34] | MIC50 [42]
85%: Activity [14] | Activity [44] | Activity [56]

C[C@@H](O)[C@H]1C(=O)N2C(C(=O)O)=C(S[C@@H]3CN[C@H](C(=O)N(C)C)C3)[C@H](C)[C@H]12 [MEROPENEM]
88%: Activity [47]
5%: Activity [58]
0.06 µg/mL: MIC [16] | MIC50 [17] | MIC50 [31] | MIC50 [32] | MIC50 [34] | MIC50 [42] | MIC50 [48] | MIC50 [51] | MIC50 [52]
0%: Activity [11] | Activity [18] | Activity [19] | Activity [20] | Activity [22] | Activity [25] | Activity [30] | Activity [37] | Activity [38] | Activity [45] | Activity [57] | Activity [60]
96%: Activity [26] | Activity [39] | Activity [43]
97%: Activity [33]
0.25 µg/mL: MIC50 [4] | MIC90 [12] | MIC90 [36] | MIC90 [59] | MIC90 [61]
0.12 µg/mL: MIC50 [12] | MIC90 [32] | MIC50 [36] | MIC90 [48] | MIC90 [51] | MIC90 [52] | MIC50 [59] | MIC50 [61]
0.5 µg/mL: MIC50 [3] | MIC90 [17] | MIC50 [24] | MIC90 [31] | MIC90 [34] | MIC50 [41] | MIC90 [42]
100%: Activity [2] | Activity [6] | Activity [7] | Activity [10] | Activity [14] | Activity [27] | Activity [28] | Activity [35] | Activity [44] | Activity [56] | Activity [62]
8 µg/mL: MIC90 [54]
4%: Activity [15] | Activity [40] | Activity [53]
8%: Activity [21] | Activity [29] | Activity [50] | Activity [55]
0.28 µg/mL: MIC50 [54]
92%: Activity [5] | Activity [8] | Activity [23] | Activity [46]
2 µg/mL: MIC90 [1] | MIC90 [3] | MIC90 [4] | MIC90 [9] | MIC90 [13] | MIC90 [24] | MIC90 [41] | MIC90 [49]
0.03 µg/mL: MIC [1] | MIC50 [1] | MIC [9] | MIC50 [9] | MIC [13] | MIC50 [13] | MIC [49] | MIC50 [49]
